# Experimental data published in PubChem BioAssay AID330 (DTP/NCI, 2004).
# Several values for one entry are separate records, joined by “and”; a condition that tells them apart may be missing. Equal values may be shown once. Toxic doses and inconclusive results are not listed.
# Test system: P388 leukemia ip, CD2F1 mice, survival T/C
# Test: NCI In Vivo Anticancer Drug Screen. Data for tumor model P388 Leukemia (intraperitoneal) in CD2F1 (CDF1) mice
# Conditions: endpoint: median survival time, higher = longer survival
# In short: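 Mice carrying the transplanted tumor received test compound or vehicle. Survival was recorded in each group, and the value is the treated-group measurement divided by that of the vehicle-treated control group.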
# [1] = dose: 50.0 mg/kg/injection, schedule: Q01DX005 (ip), vehicle: Klucel (hydroxypropylcellulose) (HPC)
# [2] = dose: 100.0 mg/kg/injection, schedule: Q01DX005 (ip), vehicle: Klucel (hydroxypropylcellulose) (HPC)
# [3] = dose: 50.0 mg/kg/injection, schedule: Q01DX005 (ip), vehicle: saline with Tween-80
# [4] = dose: 100.0 mg/kg/injection, schedule: Q01DX005 (ip), vehicle: saline with Tween-80
# [5] = dose: 60.0 mg/kg/injection, schedule: Q01DX005 (ip), vehicle: saline with Tween-80
# [6] = dose: 120.0 mg/kg/injection, schedule: Q01DX005 (ip), vehicle: saline with Tween-80
# [7] = dose: 240.0 mg/kg/injection, schedule: Q01DX005 (ip), vehicle: saline with Tween-80
# [8] = dose: 50.0 mg/kg/injection, schedule: Q01DX005 (ip), vehicle: saline
# [9] = dose: 100.0 mg/kg/injection, schedule: Q01DX005 (ip), vehicle: saline
smiles,measurement,setting,value
CCC1CC(C)C(=O)NC1=O (stereo not drawn),T/C,"dose: 12.5 mg/kg/injection, schedule: Q04DX003 (ip), vehicle: saline",100 % of control
same,T/C,"dose: 25.0 mg/kg/injection, schedule: Q04DX003 (ip), vehicle: saline",100 % of control
same,T/C,"dose: 50.0 mg/kg/injection, schedule: Q04DX003 (ip), vehicle: saline",109 % of control
COC1=C(C)C(=O)c2[nH]c(Cl)c(C=O)c2C1=O,T/C,"dose: 100.0 mg/kg/injection, schedule: Q01DX001 (ip), vehicle: saline with Tween-80",99 % of control
same,T/C,"dose: 200.0 mg/kg/injection, schedule: Q01DX001 (ip), vehicle: saline with Tween-80",95 % of control
Nc1nc(-c2c[nH]c(=O)[nH]c2=O)cs1,T/C,"dose: 12.5 mg/kg/injection, schedule: Q01DX009 (ip), vehicle: saline with Tween-80",107 % of control
same,T/C,"dose: 25.0 mg/kg/injection, schedule: Q01DX009 (ip), vehicle: saline with Tween-80",107 % of control
same,T/C,"dose: 50.0 mg/kg/injection, schedule: Q01DX009 (ip), vehicle: saline with Tween-80",104 % of control
CS/C(=C(\C#N)C(N)=O)N1CC1,T/C,"dose: 25.0 mg/kg/injection, schedule: Q04DX002 (ip), vehicle: DMSO",94 % of control
same,T/C,"dose: 50.0 mg/kg/injection, schedule: Q04DX002 (ip), vehicle: DMSO",100 % of control
same,T/C,"dose: 100.0 mg/kg/injection, schedule: Q04DX002 (ip), vehicle: DMSO",102 % of control and 95 % of control
same,T/C,"dose: 200.0 mg/kg/injection, schedule: Q04DX002 (ip), vehicle: DMSO",100 % of control
COc1ccc(C(SCC(N)C(=O)O)(c2ccccc2)c2ccccc2)cc1 (stereo not drawn),T/C,"dose: 66.0 mg/kg/injection, schedule: Q04DX003 (ip), vehicle: Klucel (hydroxypropylcellulose) (HPC)",105 % of control
same,T/C,"dose: 100.0 mg/kg/injection, schedule: Q04DX003 (ip), vehicle: Klucel (hydroxypropylcellulose) (HPC)",150 % of control
O=C(c1ccccc1Cl)n1oc2ccccc2c1=O,T/C,[1],97 % of control
same,T/C,[2],110 % of control
same,T/C,"dose: 200.0 mg/kg/injection, schedule: Q01DX005 (ip), vehicle: Klucel (hydroxypropylcellulose) (HPC)",106 % of control
Cc1cnc(Sc2ncccn2)c([N+](=O)[O-])c1,T/C,"dose: 50.0 mg/kg/injection, schedule: Q01DX009 (ip), vehicle: saline",101 % of control
same,T/C,"dose: 100.0 mg/kg/injection, schedule: Q01DX009 (ip), vehicle: saline",104 % of control
same,T/C,"dose: 200.0 mg/kg/injection, schedule: Q01DX009 (ip), vehicle: saline",104 % of control
CC(=O)OCc1ccncc1,T/C,"dose: 12.5 mg/kg/injection, schedule: Q01DX009 (ip), vehicle: distilled water + Tween-80",95 % of control
same,T/C,"dose: 25.0 mg/kg/injection, schedule: Q01DX009 (ip), vehicle: distilled water + Tween-80",101 % of control
same,T/C,"dose: 50.0 mg/kg/injection, schedule: Q01DX009 (ip), vehicle: distilled water + Tween-80",102 % of control
same,T/C,"dose: 100.0 mg/kg/injection, schedule: Q01DX009 (ip), vehicle: distilled water + Tween-80",110 % of control
same,T/C,"dose: 200.0 mg/kg/injection, schedule: Q01DX009 (ip), vehicle: distilled water + Tween-80",100 % of control
same,T/C,"dose: 400.0 mg/kg/injection, schedule: Q01DX009 (ip), vehicle: distilled water + Tween-80",92 % of control
CCOc1cc2c(OCc3ccccc3)cc3c4cc(OC)c(OC)cc4c[n+](C)c3c2cc1OC,T/C,"dose: 3.12 mg/kg/injection, schedule: Q01DX005 (ip), vehicle: saline with Tween-80",118 % of control
same,T/C,"dose: 6.25 mg/kg/injection, schedule: Q01DX005 (ip), vehicle: saline with Tween-80",112 % of control
same,T/C,"dose: 12.5 mg/kg/injection, schedule: Q01DX005 (ip), vehicle: saline with Tween-80",91 % of control
COc1ccc(N2CCN(/C=C3\Cc4ccc(F)cc4C3=O)CC2)cc1,T/C,"dose: 100.0 mg/kg/injection, schedule: Q04DX002 (ip), vehicle: Klucel (hydroxypropylcellulose) (HPC)",103 % of control
same,T/C,"dose: 200.0 mg/kg/injection, schedule: Q04DX002 (ip), vehicle: Klucel (hydroxypropylcellulose) (HPC)",99 % of control
same,T/C,"dose: 400.0 mg/kg/injection, schedule: Q04DX002 (ip), vehicle: Klucel (hydroxypropylcellulose) (HPC)",95 % of control
CCOc1cc(/C=N/NC(=O)N(c2ccccc2)c2ccccc2)ccc1O,T/C,[3],88 % of control
same,T/C,[4],88 % of control
Cn1ncc2c(=O)[nH]c(-c3ccccc3)nc21,T/C,[5],105 % of control
same,T/C,[6],96 % of control
same,T/C,[7],105 % of control
CCCCCCCCCCCC(=O)/C=C/c1ccccc1,T/C,"dose: 50.0 mg/kg/injection, schedule: Q01DX009 (ip), vehicle: Klucel (hydroxypropylcellulose) (HPC)",102 % of control
same,T/C,"dose: 100.0 mg/kg/injection, schedule: Q01DX009 (ip), vehicle: Klucel (hydroxypropylcellulose) (HPC)",93 % of control
same,T/C,"dose: 200.0 mg/kg/injection, schedule: Q01DX009 (ip), vehicle: Klucel (hydroxypropylcellulose) (HPC)",94 % of control
COc1ccccc1N=NNc1ccc(S(=O)(=O)NC(C)=O)cc1,T/C,[1],107 % of control
same,T/C,[2],114 % of control
O=C/C=C/C=O,T/C,"dose: 3.13 mg/kg/injection, schedule: Q01DX001 (ip), vehicle: saline with Tween-80",102 % of control
same,T/C,"dose: 6.25 mg/kg/injection, schedule: Q01DX001 (ip), vehicle: saline with Tween-80",102 % of control
same,T/C,"dose: 12.5 mg/kg/injection, schedule: Q01DX001 (ip), vehicle: saline with Tween-80",102 % of control
same,T/C,"dose: 25.0 mg/kg/injection, schedule: Q01DX001 (ip), vehicle: saline with Tween-80",114 % of control
COS(=O)(=O)N(C)c1nc(N(C)C)nc(N(C)C)n1,T/C,[8],96 % of control
same,T/C,[9],108 % of control
O=C(O)c1c(Cl)nc2n1CCS2,T/C,"dose: 50.0 mg/kg/injection, schedule: Q01DX001 (ip), vehicle: Klucel (hydroxypropylcellulose) (HPC)",97 % of control
same,T/C,"dose: 100.0 mg/kg/injection, schedule: Q01DX001 (ip), vehicle: Klucel (hydroxypropylcellulose) (HPC)",101 % of control
same,T/C,"dose: 200.0 mg/kg/injection, schedule: Q01DX001 (ip), vehicle: Klucel (hydroxypropylcellulose) (HPC)",104 % of control
O=C1/C(=C/c2cccc(O)c2)COc2ccccc21,T/C,[5],95 % of control
same,T/C,[6],94 % of control
same,T/C,[7],87 % of control
CC(C)NCC(O)COc1c2ccccc2nc2ccccc12 (stereo not drawn),T/C,[3],101 % of control
same,T/C,[4],95 % of control
same,T/C,"dose: 200.0 mg/kg/injection, schedule: Q01DX005 (ip), vehicle: saline with Tween-80",102 % of control
COc1cc(OC)c(C/C=C/c2ccccc2)cc1O,T/C,"dose: 2.5 mg/kg/injection, schedule: Q01DX009 (ip), vehicle: saline with Tween-80",100 % of control
same,T/C,"dose: 5.0 mg/kg/injection, schedule: Q01DX009 (ip), vehicle: saline with Tween-80",100 % of control
same,T/C,"dose: 10.0 mg/kg/injection, schedule: Q01DX009 (ip), vehicle: saline with Tween-80",102 % of control
CCN(CC)CCOCCOC1CC2CCC1(C)C2(C)C (stereo not drawn),T/C,[8],99 % of control
same,T/C,[9],96 % of control
OCCN(CO)CCO,T/C,[5],117 % of control
same,T/C,[6],123 % of control
same,T/C,[7],115 % of control
COC(=O)/C=C1/Nc2cnc(Nc3ccccc3)nc2N(c2ccccc2)C1=O,T/C,"dose: 40.0 mg/kg/injection, schedule: Q01DX009 (ip), vehicle: saline",87 % of control
same,T/C,"dose: 80.0 mg/kg/injection, schedule: Q01DX009 (ip), vehicle: saline",89 % of control
same,T/C,"dose: 160.0 mg/kg/injection, schedule: Q01DX009 (ip), vehicle: saline",87 % of control
CCCOc1cc2c(cc1C(C)c1ccc(OC)c(C)c1)OCO2 (stereo not drawn),T/C,"dose: 60.0 mg/kg/injection, schedule: Q01DX005 (ip), vehicle: saline + Tween-80 + alcohol",97 % of control
same,T/C,"dose: 120.0 mg/kg/injection, schedule: Q01DX005 (ip), vehicle: saline + Tween-80 + alcohol",109 % of control
same,T/C,"dose: 240.0 mg/kg/injection, schedule: Q01DX005 (ip), vehicle: saline + Tween-80 + alcohol",108 % of control
NNC(=O)CN(CC(=O)NN)CC(=O)NN,T/C,"dose: 50.0 mg/kg/injection, schedule: Q01DX005 (ip), vehicle: water",99 % of control
same,T/C,"dose: 100.0 mg/kg/injection, schedule: Q01DX005 (ip), vehicle: water",101 % of control
same,T/C,"dose: 200.0 mg/kg/injection, schedule: Q01DX005 (ip), vehicle: water",110 % of control
Cc1cc(NCCCCCCCCNc2cc(C)nc3cc([N+](=O)[O-])ccc23)c2ccc([N+](=O)[O-])cc2n1,T/C,"dose: 12.5 mg/kg/injection, schedule: Q01DX009 (ip), vehicle: water",110 % of control
same,T/C,"dose: 25.0 mg/kg/injection, schedule: Q01DX009 (ip), vehicle: water",101 % of control
COC1=C(C#N)C(c2ccccc2)CC(N)=N1 (stereo not drawn),T/C,"dose: 60.0 mg/kg/injection, schedule: Q01DX005 (ip), vehicle: Klucel (hydroxypropylcellulose) (HPC)",112 % of control
same,T/C,"dose: 120.0 mg/kg/injection, schedule: Q01DX005 (ip), vehicle: Klucel (hydroxypropylcellulose) (HPC)",94 % of control
